# “Also recorded” adds a separate entry of the source. Ends that are not written are not given here.
# Columns and labels:
# [1] = test system: cultured hippocampal slices; test: Aβ1–42 uptake/internalization in cultured hippocampal slices (Aβ1–42 immunocytochemistry, NIH Image quantification); type: cell-based, Sprague-Dawley rat; details: for number of Aβ-ir particles within the sample field / size (average area) of individual Aβ-ir particles / total area encompassed by Aβ-ir elements: CA1b stratum pyramidale; for number of Aβ-ir particles within the sample field: Aβ1–42 plus antagonist vs Aβ alone (FIG. 4G), significant for GRGDSP only; for size (average area) of individual Aβ-ir particles / total area encompassed by Aβ-ir elements: Aβ1–42 plus antagonist; for size (average area) of individual Aβ-ir particles: mean±sem relative to Aβ alone (FIG. 4E); for total area encompassed by Aβ-ir elements: mean±sem relative to Aβ alone (FIG. 4F); for effect on sequestration/uptake/internalization of Aβ1–42: co-incubated with Aβ1–42, 6 days, GRGDSP and GRADSP 2 mM, echistatin 2 μM; for slices with intraneuronal Aβ1–42 immunostaining: Aβ1–42 plus antagonist (GRGDSP 2 mM; echistatin 2 μM)
# Method: (§1) Organotypic hippocampal cultures were prepared using the technique of Stoppini et al. (1991). Briefly, hippocampi were harvested from brains of 9–12 days old Sprague-Dawley rat pups under sterile conditions. Sections were cut (400 μm thick) perpendicular to the long axis of hippocampus using a Mclllwain tissue chopper and were collected into a cutting medium consisting of MEM with Earle's salts (Gibco, Rockville Md.), 25 mM HEPES, 10 mM Tris base, 10 mM glucose, and 3 mM MgCl2 (pH 7.2). Slices were positioned onto 30 mm cell culture inserts (Millicell-CM, Millipore, Bedford, […].) that were placed in 6 well culture trays with 1 ml of growth medium per well [growth medium: MEM with Hank's salts (Gibco), 20% horse serum, 3 mM glutamine, 25 mM HEPES, 5 mM NaHCO3, 25 mM glucose, 0.5 mM ascorbate, 2 mM CaCl2, 2.5 mM MgCl2, 0.5 mg/1 insulin, and penicillin, pH 7.2]. The cultures were incubated at 35° C. with a 5% CO2-enriched atmosphere and the media was changed every other day until use 10–12 days later.
# (§2) Cultured hippocampal slices were exposed to media containing the human Aβ1–42 sequence in the presence or absence of the integrin antagonist peptide, Gly-Arg-Gly-Asp-Ser-Pro, or GRGDSP (SEQ. ID. No.3) (2 mM dissolved in media) (Ruoslahti, E., Ann Rev Cell Dev Biol 12:697–715 (1996)). In some cases, slices were co-treated with the specific NMDA receptor antagonist 2-amino-5-phosphonovalerate (AP5) (Sigma) at 50 μM. Control slices in neighboring wells received media-vehicle only. Aβ1–42 peptide solution was freshly prepared before the start of the experiment using 0.1N NaOH, pH adjusted with 0.1N HCl to 7.4, and then diluted with serum-free culture medium. Aβ was applied at 30 μM for 8–10 hr after which it was diluted to 15 μM by the addition of fresh culture media containing heated treated horse serum. Treatment was repeated every other day for a total 6 days. Disintegrins are small (4–10 kDa) RGD-containing, cysteine-rich peptides from snake venom that bind integrins with high affinity (Kd˜1 nM–0.1 μM) and are potent antagonists of integrin functions (Huang, T. F., Cell Mol Life Sci 54:527–540 (1998)for review). In some experiments the disintegrin echistatin (2 μM dissolved in media) was applied instead of GRGDSP (SEQ. ID. No.3).
# (§3) The following treatment, slices were thoroughly washed with 0.1M sodium phosphate buffered saline (PBS), fixed for 12–16 hr in cold 0.1M phosphate buffer (PB; pH 7.2) containing 4% paraformaldehyde, cryoprotected in 20% sucrose/PB for 1–2 hr and then carefully removed from the insert membranes. Serial sections were cut at 25 μm thick, parallel to the broad face of the explant, using a freezing microtome. Immunocytochemistry was performed using the standard avidin biotin horseradish peroxidase complex (ABC) method using reagents and instructions of the VECTASTAIN® Elite ABC kit from Vector Laboratories (Burlingame, Calif.) with diaminobenzidine tetrahydrochloride (0.05% in 50 mM Tris-HCl buffer, pH 7.4) as chromagen and PBS for rinses and as diluent for antibody incubations. Briefly, free-floating sections were preincubated with 3% normal goat serum (for anti-Aβ1–42 and anti-cathepsin D antibodies) or 10% normal horse serum (for ED-1) in PBS for 1 hr at room temperature. […] Sections were washed in PBS, incubated in biotinylated anti-rabbit or anti-mouse IgG (both at 1:200) for 2–3 hr, washed in PBS, incubated in the avidin-biotin complex solution for 45 min and then processed through the diaminobenzidine reaction. After final rinses in PBS, sections were mounted on SuperFrost Plus slides (Fisher Scientific, Pittsburgh), air-dried, dehydrated in a series of graded ethanols, and coverslipped from Clearing Solvent (Stephens Scientific, Kalamazoo, Mich.) with Permount (Fisher).
# Images centered on CA1b stratum pyramidale were obtained at 40× objective magnification using a Sony DKC-5000 digital camera attached to a Zeiss Universal microscope. […]
# cathepsin D = test: Cathepsin D immunoreactivity in cultured hippocampal slices; type: cell-based, Sprague-Dawley rat
# Method: as §1, §2
# The following treatment, slices were thoroughly washed with 0.1M sodium phosphate buffered saline (PBS), fixed for 12–16 hr in cold 0.1M phosphate buffer (PB; pH 7.2) containing 4% paraformaldehyde, cryoprotected in 20% sucrose/PB for 1–2 hr and then carefully removed from the insert membranes. Serial sections were cut at 25 μm thick, parallel to the broad face of the explant, using a freezing microtome. […]
# reactive microglia = test: Microglial activation (ED-1 immunoreactivity) in cultured hippocampal slices; type: cell-based, Sprague-Dawley rat; details: for effect on ED-1-ir microglia: 50 μM AP5 with Aβ1–42 and 2 mM GRGDSP, 6 days; for number of ED-1 positive cells: treatment by itself
# Method: as §1, §2
# as §3, with “After final rinses in PBS, sections were mounted on SuperFrost Plus slides (Fisher Scientific, Pittsburgh), air-dried, dehydrated in a series of graded ethanols, and coverslipped from Clearing Solvent (Stephens Scientific, Kalamazoo, Mich.) with Permount (Fisher).” left out
# [2] = test system: integrin binding to fibronectin and vitronectin; details: literature; used as inactive control peptide; cited from earlier work
# CHO cells = CHO cells in culture; Matter et al. 1998; cited from earlier work
# [3] = test system: LTP stabilization in field CA1 of hippocampus; details: injection of 5 μM echistatin; Chun et al., 2001; cited from earlier work
# RGD-binding integrins = test: cell-based or functional assay
# [4] = 50 μM AP5 with Aβ1–42 and 2 mM GRGDSP, 6 days
# [5] = treatment alone, 6 days, count of slices with Aβ-ir out of number of slices tested (Aβ 45, RGD 14)
# [6] = treatment alone, 6 days (GRGDSP 2 mM)
# [7] = Aβ + antagonist co-incubation, 6 days, count out of slices tested (61, 16, 21, 16), RGD and RAD 2 mM, Ech 2 μM
molecule,measurement,setting,value
"NC(CCCP(=O)(O)O)C(=O)O (stereo not shown) [AP5, 2-amino-5-phosphonovalerate]",effect on GRGDSP-enhanced Aβ1–42 uptake,[1]; [4],completely blocked Aβ1–42 uptake; also recorded: completely eliminated Aβ uptake
same,effect on cathepsin D-ir,cathepsin D; [4],almost totally suppressed; also recorded: suppressed cathepsin D-ir
same,effect on ED-1-ir microglia,reactive microglia,ED-1-ir (C′) to vehicle control levels
same,effect on ED-1-ir microglia,reactive microglia; listed as AP-5,greatly reduced
"Aβ1–42: human amyloid beta peptide, 42-residue form, applied exogenously to slices",slices with intraneuronal Aβ1–42 immunoreactivity (Aβ-ir),"[1]; Aβ1–42 alone, 6 days",42%
same,Aβ positive cases,[1]; [5],19
same,cathepsin D-ir,cathepsin D; [6],did not cause substantial increases in cathepsin D-ir
same,number of ED-1 positive cells,reactive microglia,did not cause a noticeable increase in the number of ED-1 positive cells
GRADSP,Aβ positive cases,[1]; [7],9
same,number of Aβ-ir particles within the sample field,[1],did not cause significant changes
same,size (average area) of individual Aβ-ir particles,[1],did not cause significant changes
same,total area encompassed by Aβ-ir elements,[1],did not cause significant changes
same,effect on sequestration/uptake/internalization of Aβ1–42,[1],did not measurably affect sequestration of Aβ1–42; also recorded: modest
same,antagonism of integrin binding to fibronectin and vitronectin,[2],very weak antagonist
Gly-Arg-Gly-Asp-Ser-Pro [GRGDSP],slices with intraneuronal Aβ1–42 immunostaining,[1]; 6 days,More than 88%
same,number of Aβ-ir particles within the sample field,[1],increased the numbers of Aβ-ir particles
same,size (average area) of individual Aβ-ir particles,[1],+101±13%
same,total area encompassed by Aβ-ir elements,[1],324±16%
same,effect on sequestration/uptake/internalization of Aβ1–42,[1],markedly increase sequestration of the exogenous peptide; also recorded: markedly enhances uptake in cultured hippocampal slices; also recorded: enhanced; also recorded: increased the uptake of Aβ1–42 peptide
same,induction of Aβ-ir,"[1]; peptide by itself, without Aβ1–42",did not induce Aβ-ir
same,Aβ positive cases,[1]; [5],0
same,cathepsin D-ir,"cathepsin D; Aβ1–42 plus 2 mM GRGDSP, 6 days",generated intense intraneuronal cathepsin D-ir; also recorded: elevated
same,cathepsin D-ir,cathepsin D; [6],did not increase cathepsin D-ir
same,microglial response (ED-1-ir),reactive microglia; Aβ1–42 and GRGDSP applied together,produced a pronounced microglial response
same,number of ED-1 positive cells,reactive microglia,did not cause a noticeable increase in the number of ED-1 positive cells
same,effect on binding and uptake of Aβ,CHO cells,block the binding and uptake of Aβ in CHO cells
echistatin (QCESGPCCRNCKFLKEGTICKRARGDDMDDYCNGKTCDCPRNPHKGPAT),slices with intraneuronal Aβ1–42 immunostaining,[1]; 6 days,86%
same,Aβ positive cases,[1]; [7],18
same,number of Aβ-ir particles within the sample field,[1],increased the numbers of Aβ-ir particles
same,size (average area) of individual Aβ-ir particles,[1],+95±13%
same,total area encompassed by Aβ-ir elements,[1],233±24%
same,effect on sequestration/uptake/internalization of Aβ1–42,[1],significantly enhanced Aβ internalization; also recorded: increased the uptake of Aβ1–42 peptide
same,effect on LTP stabilization,[3],selectively disrupts LTP stabilization
GRADSP [inactive control peptide Gly-Arg-Ala-Asp-Ser-Pro (GRADSP)],"Aβ positive cases (slices with intraneuronal Aβ1-42 immunoreactivity), Aβ + RAD, of 16 slices tested (slices (of 16 tested))",RGD-binding integrins,9
GRGDSP [integrin antagonist peptide Gly-Arg-Gly-Asp-Ser-Pro (GRGDSP)],"Aβ positive cases (slices with intraneuronal Aβ1-42 immunoreactivity), Aβ + RGD, of 61 slices tested (slices (of 61 tested))",RGD-binding integrins,54
same,"increase in size (mean area) of Aβ-ir elements in CA1 stratum pyramidale, relative to Aβ alone",RGD-binding integrins,101%
same,"total area encompassed by Aβ-immunoreactive elements, relative to Aβ alone",RGD-binding integrins,324%
